Laboratory results: ChEMBL document CHEMBL5344441, “Discovery and Preclinical Pharmacology of NX-2127, an Orally Bioavailable Degrader of Bruton's Tyrosine Kinase with Immunomodulatory Activity for the Treatment of Patients with B Cell Malignancies” (J Med Chem, 2024)
Values after ≈ are worked out from the molar mass of the structure shown.

Legend:
[1] = biological target: T1, Protein cereblon/Tyrosine-protein kinase BTK (Mus musculus) (UniProt P35991+Q8C7D2); test: In vivo protac activity at CRBN/BTK in BALB/c mouse assessed as remaining BTK protein in blood at 3 mg/kg,po administration measured after 6 hrs by flow cytomtery relative to control; type: functional, organism-based
T1 sequence (P35991 whole entry, looked up): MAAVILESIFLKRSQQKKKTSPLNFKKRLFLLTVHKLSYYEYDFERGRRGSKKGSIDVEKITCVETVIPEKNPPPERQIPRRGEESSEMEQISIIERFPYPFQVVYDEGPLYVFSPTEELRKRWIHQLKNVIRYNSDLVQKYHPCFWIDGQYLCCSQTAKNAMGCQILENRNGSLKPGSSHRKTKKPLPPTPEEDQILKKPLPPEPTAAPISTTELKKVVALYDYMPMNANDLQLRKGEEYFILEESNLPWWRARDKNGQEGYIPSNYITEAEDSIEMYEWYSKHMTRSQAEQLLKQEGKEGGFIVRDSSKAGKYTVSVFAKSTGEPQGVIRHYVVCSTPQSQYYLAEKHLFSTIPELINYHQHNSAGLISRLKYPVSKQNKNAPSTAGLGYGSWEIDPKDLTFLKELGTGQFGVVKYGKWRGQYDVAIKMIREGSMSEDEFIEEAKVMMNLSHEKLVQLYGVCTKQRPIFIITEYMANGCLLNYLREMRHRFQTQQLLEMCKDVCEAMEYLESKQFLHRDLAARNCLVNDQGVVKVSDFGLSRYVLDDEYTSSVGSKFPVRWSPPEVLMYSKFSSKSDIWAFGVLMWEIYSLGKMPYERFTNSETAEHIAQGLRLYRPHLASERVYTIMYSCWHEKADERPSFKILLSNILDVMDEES
T1 sequence (Q8C7D2 whole entry, looked up): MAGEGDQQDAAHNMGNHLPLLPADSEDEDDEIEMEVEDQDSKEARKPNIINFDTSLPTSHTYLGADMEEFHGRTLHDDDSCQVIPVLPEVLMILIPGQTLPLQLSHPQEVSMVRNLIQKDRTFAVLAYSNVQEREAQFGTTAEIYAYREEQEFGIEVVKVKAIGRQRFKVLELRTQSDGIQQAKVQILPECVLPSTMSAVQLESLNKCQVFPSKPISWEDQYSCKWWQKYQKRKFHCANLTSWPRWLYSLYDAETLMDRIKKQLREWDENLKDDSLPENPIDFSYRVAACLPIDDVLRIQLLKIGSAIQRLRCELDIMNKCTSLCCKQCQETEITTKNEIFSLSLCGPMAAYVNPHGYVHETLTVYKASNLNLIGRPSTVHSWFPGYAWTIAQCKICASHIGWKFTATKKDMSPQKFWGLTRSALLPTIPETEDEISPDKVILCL

[2] = Apparent permeability across apical to basolateral side in human Caco-2 cells; type: ADME, cell-based
[3] = Plasma protein binding in dog; type: ADME, cell-free, Canis lupus familiaris; conditions: read-out: PPB (converted)
[4] = biological target: Protein cereblon/Zinc finger protein Aiolos (Homo sapiens, UniProt Q96SW2+Q9UKT9); test: PROTAC activity at CRBN/IKZF3 in human T cell assessed as maximal degradation of IKZF3 protein incubated for 24 hrs by flow cytometry relative to control; type: cell-based
Sequence of Protein cereblon/Zinc finger protein Aiolos (Q96SW2 whole entry, looked up): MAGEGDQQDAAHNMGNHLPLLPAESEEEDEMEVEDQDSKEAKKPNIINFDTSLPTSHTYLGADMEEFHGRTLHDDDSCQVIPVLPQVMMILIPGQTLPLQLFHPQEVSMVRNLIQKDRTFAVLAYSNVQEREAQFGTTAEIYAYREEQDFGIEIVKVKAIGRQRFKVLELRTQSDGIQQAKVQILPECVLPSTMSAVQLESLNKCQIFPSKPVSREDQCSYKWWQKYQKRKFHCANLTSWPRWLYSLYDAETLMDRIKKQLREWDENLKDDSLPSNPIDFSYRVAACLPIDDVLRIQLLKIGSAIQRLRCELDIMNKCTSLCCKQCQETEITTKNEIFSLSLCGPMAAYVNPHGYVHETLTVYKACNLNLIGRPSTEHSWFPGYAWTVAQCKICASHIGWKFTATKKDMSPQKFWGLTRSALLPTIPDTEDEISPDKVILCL
Sequence of Protein cereblon/Zinc finger protein Aiolos (Q9UKT9 whole entry, looked up): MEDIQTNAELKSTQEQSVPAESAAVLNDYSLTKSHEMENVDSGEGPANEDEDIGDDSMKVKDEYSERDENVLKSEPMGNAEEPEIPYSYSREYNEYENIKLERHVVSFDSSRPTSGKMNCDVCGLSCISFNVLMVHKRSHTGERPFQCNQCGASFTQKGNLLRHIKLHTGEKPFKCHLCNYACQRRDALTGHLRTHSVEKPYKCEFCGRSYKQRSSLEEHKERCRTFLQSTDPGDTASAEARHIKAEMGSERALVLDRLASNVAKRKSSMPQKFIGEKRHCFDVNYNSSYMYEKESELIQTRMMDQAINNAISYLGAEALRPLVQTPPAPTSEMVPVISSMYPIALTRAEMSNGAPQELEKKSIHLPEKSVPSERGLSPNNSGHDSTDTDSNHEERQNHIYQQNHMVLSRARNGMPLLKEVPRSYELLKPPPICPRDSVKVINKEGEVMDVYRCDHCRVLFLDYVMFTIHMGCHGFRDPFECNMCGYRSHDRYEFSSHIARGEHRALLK

[5] = Lipophilicity, logD of compound at pH 7.4; type: physicochemical; conditions: buffer
[6] = biological target: Cereblon/Ikaros (Homo sapiens, UniProt Q96SW2+Q13422); test: PROTAC activity at CRBN/IKZF1 in human T cell assessed as degradation of IKZF1 protein incubated for 24 hrs by flow cytometry; type: cell-based
Sequence of Cereblon/Ikaros (Q96SW2 whole entry): as the sequence (Q96SW2 whole entry, looked up) above
Sequence of Cereblon/Ikaros (Q13422 whole entry): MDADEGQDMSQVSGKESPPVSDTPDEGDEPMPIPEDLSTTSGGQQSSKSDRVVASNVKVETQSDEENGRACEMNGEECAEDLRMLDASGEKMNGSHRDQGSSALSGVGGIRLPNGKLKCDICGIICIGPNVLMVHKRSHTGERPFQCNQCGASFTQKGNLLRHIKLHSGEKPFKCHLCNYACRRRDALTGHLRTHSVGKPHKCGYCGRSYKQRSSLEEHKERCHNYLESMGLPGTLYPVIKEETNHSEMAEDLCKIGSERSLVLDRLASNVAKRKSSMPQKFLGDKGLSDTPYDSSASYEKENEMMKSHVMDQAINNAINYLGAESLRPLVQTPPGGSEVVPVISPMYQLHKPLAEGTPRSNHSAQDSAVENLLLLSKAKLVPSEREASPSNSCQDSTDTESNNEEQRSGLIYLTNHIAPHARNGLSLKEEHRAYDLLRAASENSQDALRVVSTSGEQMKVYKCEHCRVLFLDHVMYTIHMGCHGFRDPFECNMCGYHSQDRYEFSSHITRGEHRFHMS

[7] = biological target: T2, Protein cereblon/Tyrosine-protein kinase BTK (Homo sapiens, UniProt Q06187+Q96SW2); test: PROTAC activity at CRBN/BTK in human Ramos cells assessed as maximal degradation of BTK protein incubated for 4 hrs by HTRF assay relative to control; type: cell-based
Target sequence in this assay (Q06187 2-659 limits assumed): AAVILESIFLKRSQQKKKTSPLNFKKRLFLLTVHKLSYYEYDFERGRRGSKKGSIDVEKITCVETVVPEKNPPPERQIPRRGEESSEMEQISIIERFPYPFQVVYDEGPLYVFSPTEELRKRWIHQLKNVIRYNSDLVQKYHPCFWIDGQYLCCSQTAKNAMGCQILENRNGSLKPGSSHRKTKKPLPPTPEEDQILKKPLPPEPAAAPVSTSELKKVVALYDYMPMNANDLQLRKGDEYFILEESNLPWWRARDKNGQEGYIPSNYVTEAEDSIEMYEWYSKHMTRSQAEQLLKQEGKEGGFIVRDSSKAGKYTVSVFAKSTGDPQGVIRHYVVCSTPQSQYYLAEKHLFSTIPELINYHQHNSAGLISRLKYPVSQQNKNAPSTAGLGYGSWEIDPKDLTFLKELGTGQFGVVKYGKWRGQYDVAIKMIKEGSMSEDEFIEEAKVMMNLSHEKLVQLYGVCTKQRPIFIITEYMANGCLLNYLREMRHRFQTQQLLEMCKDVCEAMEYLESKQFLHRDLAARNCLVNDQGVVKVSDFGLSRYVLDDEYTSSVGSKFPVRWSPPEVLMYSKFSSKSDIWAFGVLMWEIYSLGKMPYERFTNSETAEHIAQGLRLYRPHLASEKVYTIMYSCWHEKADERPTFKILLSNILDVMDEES
Target sequence in this assay (Q96SW2 whole entry partner): as the sequence (Q96SW2 whole entry, looked up) above

[8] = Ratio of drug concentration in human blood to plasma; type: ADME, cell-free; conditions: whole blood
[9] = Plasma protein binding in rat; type: ADME, cell-free; conditions: read-out: PPB
[10] = Efflux ratio of apparent permeability in human Caco-2 cells; type: ADME, cell-based
[11] = biological target: T2, Protein cereblon/Tyrosine-protein kinase BTK; test: PROTAC activity at CRBN/BTK in human TMD8 cells assessed as maximal degradation of BTK protein incubated for 4 hrs by HTRF assay relative to control; type: cell-based
Target sequence in this assay (Q06187 2-659 limits assumed): as the sequence (Q06187 2-659 limits assumed) above
Target sequence in this assay (Q96SW2 whole entry partner): as the sequence (Q96SW2 whole entry, looked up) above

[12] = biological target: Protein cereblon/Tyrosine-protein kinase BTK (Homo sapiens, UniProt Q06187+Q96SW2, C481S); test: PROTAC activity at CRBN/BTK C481S mutant in human TMD8 cells assessed as degradation of BTK protein incubated for 4 hrs by HTRF assay; type: cell-based
Sequence of Protein cereblon/Tyrosine-protein kinase BTK (Homo sapiens, UniProt Q06187+Q96SW2, C481S) (Q06187 2-659 C481S limits assumed, stated change not applied): as the sequence (Q06187 2-659 limits assumed) above, with C480S counted along it
Sequence of Protein cereblon/Tyrosine-protein kinase BTK (Homo sapiens, UniProt Q06187+Q96SW2, C481S) (Q96SW2 whole entry, stated change not applied): as the sequence (Q96SW2 whole entry, looked up) above

[13] = Ratio of drug concentration in mouse blood to plasma; type: ADME, cell-free; conditions: whole blood
[14] = Observed clearance in mouse at 1 mg/kg,iv; type: ADME, organism-based; conditions: in vivo
[15] = Ratio of drug concentration in cynomolgus monkey blood to plasma; type: ADME, cell-free, Macaca fascicularis; conditions: whole blood
[16] = tested on: Protein cereblon/Tyrosine-protein kinase BTK (Homo sapiens), Q06187+Q96SW2 [C481S]; test: PROTAC activity at CRBN/BTK C481S mutant in human TMD8 cells assessed as maximal degradation of BTK protein incubated for 4 hrs by HTRF assay relative to control; type: cell-based
[17] = Plasma protein binding in cynomolgus monkey; type: ADME, cell-free, Macaca fascicularis; conditions: read-out: PPB (converted)
[18] = Aqueous solubility of the compound in PBS at pH 7.4; type: physicochemical
[19] = Plasma protein binding in mouse; type: ADME, cell-free; conditions: read-out: PPB
[20] = Ratio of drug concentration in rat blood to plasma; type: ADME, cell-free; conditions: whole blood
[21] = Oral bioavailability in mouse at 10 mg/kg; type: ADME, organism-based; conditions: in vivo
[22] = Plasma protein binding in human; type: ADME, cell-free; conditions: read-out: PPB (converted)
[23] = biological target: T2, Protein cereblon/Tyrosine-protein kinase BTK; test: PROTAC activity at CRBN/BTK in human TMD8 cells assessed as degradation of BTK protein incubated for 4 hrs by HTRF assay; type: cell-based
Target sequence in this assay (Q06187 whole entry): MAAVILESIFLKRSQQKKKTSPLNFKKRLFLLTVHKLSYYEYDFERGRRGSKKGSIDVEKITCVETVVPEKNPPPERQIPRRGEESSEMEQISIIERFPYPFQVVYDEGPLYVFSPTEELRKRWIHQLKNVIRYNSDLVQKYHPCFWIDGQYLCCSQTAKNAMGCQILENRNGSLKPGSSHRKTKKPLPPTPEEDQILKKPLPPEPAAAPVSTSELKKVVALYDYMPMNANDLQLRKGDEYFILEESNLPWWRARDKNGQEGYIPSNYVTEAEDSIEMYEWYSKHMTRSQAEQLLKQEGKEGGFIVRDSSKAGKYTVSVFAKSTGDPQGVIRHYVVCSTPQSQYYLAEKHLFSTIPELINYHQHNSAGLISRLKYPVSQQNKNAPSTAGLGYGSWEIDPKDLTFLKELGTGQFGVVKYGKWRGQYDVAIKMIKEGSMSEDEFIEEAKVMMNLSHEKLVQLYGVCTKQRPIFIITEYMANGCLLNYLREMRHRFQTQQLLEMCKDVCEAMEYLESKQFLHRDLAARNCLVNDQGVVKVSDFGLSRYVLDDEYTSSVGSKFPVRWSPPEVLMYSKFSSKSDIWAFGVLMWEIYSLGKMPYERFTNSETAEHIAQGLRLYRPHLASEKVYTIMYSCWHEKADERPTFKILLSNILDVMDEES
Target sequence in this assay (Q96SW2 whole entry): as the sequence (Q96SW2 whole entry, looked up) above

[24] = biological target: T1, Protein cereblon/Tyrosine-protein kinase BTK (Mus musculus); test: In vivo protac activity at CRBN/BTK in BALB/c mouse assessed as remaining BTK protein in splenocyte at 3 mg/kg,po administration measured after 6 hrs by HTRF assay relative to control; type: functional, organism-based
[25] = biological target: T2, Protein cereblon/Tyrosine-protein kinase BTK; test: PROTAC activity at CRBN/BTK in human Ramos cells assessed as degradation of BTK protein incubated for 4 hrs by HTRF assay; type: cell-based
Target sequence in this assay (Q06187 whole entry): as the sequence (Q06187 whole entry) above
Target sequence in this assay (Q96SW2 whole entry): as the sequence (Q96SW2 whole entry, looked up) above

[26] = Ratio of drug concentration in dog blood to plasma; type: ADME, cell-free, Canis lupus familiaris; conditions: whole blood
[27] = AUC in mouse at 10 mg/kg,po; type: ADME, organism-based; set-up: dose 10 mg/kg, route po; conditions: in vivo

With `CN1CCN([C@@H]2CCCN(c3cnc(C(N)=O)c(Nc4ccc(C5CCN(C[C@H]6CCN(c7ccc8c(c7)C(=O)N(C7CCC(=O)NC7=O)C8=O)C6)CC5)cc4)n3)C2)C1=O` (some centres not stated) the Activity [1] was 50%, the Papp A→B [2] was < 0.01 ×10⁻⁶ cm/s and the fraction unbound [3] was 0.031. For the same compound, the Emax [4] was 79%, the logD [5] was 3.7 and the DC50 [6] was 57 nM. For the same compound, the Emax [7] was 97%, the blood plasma ratio [8] was 0.3 and the fraction unbound [9] was < 0.015. For the same compound, the efflux ratio [10] was > 84, the Emax [11] was 97% and the DC50 [12] was 1.5 nM. For the same compound, the blood plasma ratio [13] was 1.1, the clearance [14] was 3 mL/min/kg and the blood plasma ratio [15] was 11. It also gave an Emax [16] of 94.8%, a fraction unbound [17] of 0.025 and a solubility [18] of 0.3 µM (≈ 0.245 µg/mL). The fraction unbound [19] was < 0.015, the blood plasma ratio [20] was 1.3 and the bioavailability [21] was 5.4%. The fraction unbound [22] was 0.066, the DC50 [23] was 0.35 nM and the Activity [24] was 32%. The DC50 [25] was 0.5 nM, the blood plasma ratio [26] was 6 and the AUC [27] was 3.6 µM·h.
